Where a name gives a salt, the structure may show the parent alone. Marks after values point to notes of the source that are not given here.
Tests used:
[1] = Solubility of mivorilaner in carriers under isothermal conditions; assay type: physicochemical
Protocol: The solubility of mivorilaner in a number of carriers was also measured under isothermal conditions.

[2] = Solubility of active ingredients in liquid carriers, transmissivity measurement with a crystallizer multi-reactor
Description: To determine the solubility of various active ingredients that could be incorporated into pet food, each active ingredient may be evaluated in a temperature dependent manner using a crystallizer multi-reactor with transmissivity measurements.
Carrier of interest may be prepared as needed and specific active ingredients may be added to the solvents to form mixtures of the solvent and active. […] If mixing and/or heating fails to provide visual evidence that an active ingredient dissolves in the test solvent carrier no further solubility testing of the active ingredient with the test carrier can be conducted.
For active ingredients that appear to at least partially dissolve in a given carrier, the mixtures can be analyzed by transmissivity measurement using a crystallizer multi-reactor. Prior to the transmissivity measurement using a crystallizer multi-reactor with transmissivity capability, carriers may be prepared, as needed, and subsequently tested using a heating cycle over a range of temperatures. The transmissivity data can be recorded over the temperature ranges and used as a blank or reference in subsequent transmissivity measurements.
Typically, initial samples including the active ingredient of interest and the test carrier are not readily soluble at room temperature and may register low percent transmissivity along with visible observations of insolubilized material. When resulting admixtures are heated at a specific heating rate, the percent transmissivity increases as the active ingredient is solubilized. When the solids are completely dissolved, the transmissivity is measured as 100%. When the resulting heated admixture is subsequently cooled, solids may precipitate at a given temperature and cooling rate, which results in a decrease in percent transmissivity. The temperature and time at which precipitation occurs with a specific admixture provides additional information regarding solubility and the combination of parameters needed for selection to prepare feed with the active ingredient of interest.
Carriers include, refined chicken fat, refined chicken fat including lecithin, refined chicken fat including Tween80, refined chicken fat including triacetin, and triacetin may be used as carrier systems over a range of temperatures, ramp rates, stirring rates, and cooling cycles to evaluate stability.
Admixture experiments may be performed with active ingredients including, e.g., mivorilaner, sarolaner, lotilaner, fluralaner, afoxolaner, spinosad, pyrantel, praziquantel, fenbendazole, diethylcarbamazine, moxidectin, gabapentin and metformin in combination with different test carriers using the methodology described herein. “Apparent solubility” is a term used herein to denote that the admixture may be a true solution, i.e., an admixture in which the active ingredient completely dissolves into the carrier liquid. However, the term “apparent solubility” also can include suspensions and emulsions, for example, which resemble a true solution but are not.

O=C(CNC(=O)c1sc(C2=NO[C@@](c3cc(Cl)c(F)c(Cl)c3)(C(F)(F)F)C2)c2c1CCC2)NCC(F)F [Mivorilaner]
Solubility in a combination of chicken fat and lecithin ([1]; chicken fat and lecithin): soluble over a wide range of concentrations and temperatures
Solubility observation, chicken fat only ([1]; chicken fat only, all experiments): visible detection of agglomerates was noted in all experiments
Time to Achieve Apparent Solubility ([2]; carrier Chicken Fat + Tween 80, 2.0 mg/g, 40 ° C.): 1.5** hours
Effect of the presence of lecithin on solubility ([2]; chicken fat vs chicken fat including 4% (w/w) lecithin, 2-16 mg/g, 0.1° C./minute, 39° C. to 60° C., FIG. 5): increased mivorilaner solubility

NCC1(CC(=O)O)CCCCC1 [Gabapentin]
Measured Concentration ([2]; carrier CF, Up to 60 ° C.): 0 mg/g
Time to Achieve Apparent Solubility ([2]; carrier CF, Up to 60 ° C.): Insoluble
Measured Concentration ([2]; carrier Triacetin, 20-22 ° C.): <1 mg/g

CN(C)C(=N)N=C(N)N [Metformin-HCI, Metformin HCl]
Measured Concentration ([2]; carrier CF, Up to 60 ° C.): 0 mg/g
Measured Concentration ([2]; carrier Triacetin, 20-22 ° C.): <1 mg/g
